# From patent US20110021471A1, “REDUCING Abeta42 LEVELS AND Abeta AGGREGATION” (priority 2007, published 2011)
# Where two headings read alike, the source gives them in different places.
# Columns and labels:
# [1] = system: APP-NOTCH TMD cells; assay: Aβ modulation in APP-NOTCH TMD cells; format: cell-based, human; details: APP-NOTCH TMD line
# Experimental: (§1) (A) and (B) The sequences of wildtype (WT; A) APP and the mutated substrate (B) containing the homologous region (italic, underlined) of the NOTCH transmembrane domain (TMD) in APP where GSMs are hypothesized to bind. […] Bottom row, FT-1 ([…]) raised Aβ42 200% in APP wild-type cells (A); however, in APP-NOTCH TMD cells (B), FT-1 caused minimal changes in the Aβ42 (95%) or Aβ40 (90%) signal. Data are presented as amyloid-β percentage of control±s.e.m., n=3.
# (§2) FIG. 19. Substitution of human Notch sequence in the APP transmembrane domain (TMD) changes sensitivity to modulation. (A) Site-directed mutagenesis was used to exchange the analogous region of the human Notch TMD (bold and underlined) for a section (bold and underlined) of wild-type APP (APPwt) we have shown to be labeled by GSMs. The new substrate (APP-Notch TMD) is cleaved by γ-secretase primarily after valine and alanine residues corresponding to 40 and 42 in APPwt (arrows). […] The beginning (1) N-terminal amino acid (AA) to the ending C-terminal AA is shown above each peak, with the molecular weight (m/z) below. 1-40 and 1-42 are detected as the two major species in APP-Notch TMD conditioned media. It should be noted that the mutagenesis strategy to create APPNotch TMD led to a single AA deletion relative to APPwt. The correct change in molecular weight caused by the introduced mutations were confirmed by the mass spectrum. For simplicity the peptides are referenced by their C-terminal residues relative to Aβ (40, 42, etc). Representative mass spectra are shown from multiple IP reactions (3) and duplicate spots. […] Both cell lines were treated (6 hours) with L-685,458 (10 μM), which is hypothesized to target the active site aspartate residues, media was collected, and analyzed for changes in Aβ levels. The 40 and 42 Aβ reactive species from both cell lines were inhibited by L-685,458 with equal sensitivity (no significant difference; 40 p>0.5; 42 p>0.4; t test; n=3).
# To test the hypothesis that mutation of the GSM binding site in APP should alter sensitivity to GSMs, a portion of the GSM binding site in APP was exchanged with the analogous region of human NOTCH (FIGS. 18A and 18B; FIG. 19). The chimeric construct was used because the NOTCH transmembrane domain (TMD) appears resistant to GSM effects. The APP NOTCH TMD construct produced a spectrum of chimeric amyloid-β species in conditioned cell media (FIG. 19). Although the molecular weight and abundance of each chimeric peptide differed from amyloid-β peptides from APP, the main species produced from the APP-NOTCH TMD construct had identical C-termini to Ab1-40 and Ab1-42, and could be quantified by enzyme-linked immunosorbent assays (ELISAs; FIG. 19). The relative sensitivity to GSMs of APP-NOTCH TMD versus APP was assayed in stably transfected cells. […]
# [2] = system: Human H4 neuroglioma cells expressing wild-type APP695 protein or CTF105; assay: Cell-based screens for amyloid-β modulation (H4 cells, ELISA); details: for EC50: Homo sapiens, cellular dose-response
# Excerpt: Photoaffinity labelling. All experiments used the following general protocol. […] Cell-based screens for amyloid-β modulation. […] Statistical analysis.
# [3] = molecular target: γ-secretase (Homo sapiens, UniProt P49768); assay: GSM activity of compounds that bind Aβ or Aβ amyloid (cell-based or cell-free γ-secretase assays, FIG. 12); details: two doses (10 and 100 μM)
# Experimental: A literature search was performed to identify compounds reported to bind to the Aβ peptide directly or amyloid. These candidates were initially tested in cell-based assays or cell-free in vitro γ-secretase assays at two doses (10 and 100 μM).
# Finally, X-34 was tested for its ability to modulate Aβ42 amounts in an APP transgenic mouse (Tg2576).
# [4] = molecular target: T1, APP-CTF (Homo sapiens, UniProt P05067); assay: Photoaffinity labelling of APP and APP CTF in H4 cell membrane fractions and competition; format: binding; details: photoprobe 25 μM, competitor 200 μM
# T1 construct: this protein was designated α-secretase-derived APP CTF (CTF83) on the basis of molecular weight; expressed in transfected cells
# T1 sequence (P05067 688-770 limits assumed): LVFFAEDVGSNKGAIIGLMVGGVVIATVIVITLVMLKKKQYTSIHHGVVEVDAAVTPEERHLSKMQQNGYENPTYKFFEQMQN
# Experimental: Photoaffinity labelling. All experiments used the following general protocol. Samples (recombinant or synthetic peptides, cell lysates and membrane preparations) were exposed in borosilicate test tubes to ultraviolet light (350 nm) in a Rayonet Photoreactor R100 (RPR-3500 lamps, Southern New England Ultra Violet Company) in a cold room (4° C.) for 30 minutes or as otherwise noted. Crosslinked samples were analyzed by ELISA for biotin incorporation, or analyzed directly by SDS-PAGE (Criterion-XT, Bio-Rad), or after precipitation with streptavidin ultralink plus beads (Pierce). After immunblotting, proteins were detected using chemiluminesence (ECL Plus, GEHealthcare) or near-infrared fluorescence (LiCor Odyssey). Full-length APP and APP CTFs (CTF83, CTF99) were detected with CT20, a rabbit polyclonal antibody against the C-terminus of APP. Biotin was detected with an affinity-purified rabbit polyclonal antibody (Bethyl). Cell-based screens for amyloid-β modulation.
# [5] = system: APP wild-type cells; assay: Aβ modulation in APP wild-type cells; format: cell-based; details: APP wild-type cells; read-out: EC50, lowering of Aβ42
# Experimental: as §1
# as §2, with “APPwt.” for “APPwt. The correct change in molecular weight caused by the introduced mutations were confirmed by the mass spectrum. For simplicity the peptides are referenced by their C-terminal residues relative to Aβ (40, 42, etc). Representative mass spectra are shown from multiple IP reactions (3) and duplicate spots.”, “The 40 and 42 Aβ reactive species from both cell lines were inhibited by L-685,458 with equal sensitivity (no significant difference; 40 p>0.5; 42 p>0.4; t test; n=3).” left out
# To test the hypothesis that mutation of the GSM binding site in APP should alter sensitivity to GSMs, a portion of the GSM binding site in APP was exchanged with the analogous region of human NOTCH (FIGS. 18A and 18B; FIG. 19). […] Although the molecular weight and abundance of each chimeric peptide differed from amyloid-β peptides from APP, the main species produced from the APP-NOTCH TMD construct had identical C-termini to Ab1-40 and Ab1-42, and could be quantified by enzyme-linked immunosorbent assays (ELISAs; FIG. 19). […]
smiles,measurement,setting,value
"O=C(O)c1cc(C=Cc2ccc(C=Cc3ccc(O)c(C(=O)O)c3)cc2)ccc1O [X-34, 1,4-bis(3-carboxy-4-hydroxyphenylethenyl)-benzene]",Aβ40 or Aβ42 concentrations,[1],did not change either Aβ40 or Aβ42 concentrations
same,total amyloid-β amounts,[2],did not decrease
same,Aβ42 levels,[2]; H4 cells expressing APP,decrease
same,EC50,"[2]; read-out: EC50, lowering of Aβ40",60.7 µM
same,EC50,"[2]; read-out: EC50, lowering of Aβ42",13.7 µM
same,GSM activity,[3],Aβ42-lowering
same,competition of APP-CTF labeling by Fen-B and Flurbi-BpB,[4],decreases labeling of APP-CTF
same,EC50,[5],5.9 µM
